Measured values reported in US5565433A, “Sulfated β-glycolipid derivatives as cell adhesion inhibitors” (Bristol-Myers Squibb Company, priority 1996, dated 1996).
pIC50: −log10 of the molar value.

Columns and labels:
P-selectin [1] = molecular target: T1, P-selectin (Homo sapiens, UniProt P16109); experiment: HL-60 Cell Binding to P-selectin Rg; format: cell-based; conditions: HL-60 cells binding to P-selectin Rg coated wells
T1 construct: consists of the human lectin domain, the EGF domain, and two complement repeats of the human selectins; made in house
T1 sequence (P16109 with tags, fused parts or gaps limits assumed): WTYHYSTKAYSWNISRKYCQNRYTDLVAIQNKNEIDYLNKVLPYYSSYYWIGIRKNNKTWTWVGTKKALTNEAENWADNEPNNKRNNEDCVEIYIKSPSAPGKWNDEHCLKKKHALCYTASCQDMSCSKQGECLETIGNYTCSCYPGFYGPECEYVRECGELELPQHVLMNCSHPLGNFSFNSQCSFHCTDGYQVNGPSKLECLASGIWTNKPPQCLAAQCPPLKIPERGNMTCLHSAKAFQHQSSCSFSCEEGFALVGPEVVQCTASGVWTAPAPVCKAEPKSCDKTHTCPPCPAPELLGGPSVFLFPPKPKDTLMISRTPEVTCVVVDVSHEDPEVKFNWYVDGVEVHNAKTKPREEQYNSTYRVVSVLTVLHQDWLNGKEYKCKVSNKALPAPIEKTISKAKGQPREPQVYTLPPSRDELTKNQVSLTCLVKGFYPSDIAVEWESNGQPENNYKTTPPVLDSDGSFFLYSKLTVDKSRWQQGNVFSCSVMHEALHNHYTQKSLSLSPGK
Method: 2. HL-60 Cell Binding to P- and E-Selectin RG
Receptor globulin (Rg) Construction
The chimeric P-and E-selectin receptor globulin (Rg) consists of the human lectin domain, the EGF domain, and two complement repeats of the human selectins fused to the hinge, CH1 and CH2 domains of human IgG1. These proteins were prepared as described by Aruffo, et al., Cell (1991) 67: 35-44; Walz, et al., Science (1990) 250, 1132-1135.
Cell binding assay for Rg
The HL-60 cell line, obtained from the American Type Culture Collection, ATCC No. CCL240, was employed to investigate P-selectin Rg binding. Assays were done in 96-well tissue culture dishes. The wells were first coated with 0.5 ug goat anti-human Fc antiserum overnight, and nonspecific binding sites were blocked by incubation of the wells with 1% nonfat dry milk in phosphate buffered saline (PBS containing 0.9 mM CaCl2 and 0.8 mM MgSO4) for 30 minutes. The Rg was then bound to the anti Fc-coated wells by incubating 50 ng in 50 ul of PBS for two hours. Cells, washed twice and resuspended in PBS to remove traces of medium components, were labeled with 10 uM calcein acetoxy methyl ester for 30 minutes at 3×10^7 cells per ml at room temperature. Serum-containing medium (RPMI with 20% fetal calf serum) was added, and the cells washed, followed by resuspension in PBS and a further spin. The labeled cells, resuspended in PBS, were added to twice washed Rg-containing wells at 200,000 per well. Following a 30 minute incubation with slow shaking, the wells were aspirated and washed three times with PBS to remove unbound cells. To certain wells were added known numbers of cells for determination of a standard curve of fluorescent units per cell. The fluorescence on the plate was quantitated using a fluorescent plate reader. Following subtraction of a blank representing the binding of cells to non-Rg containing wells (<5000 cells), the specific binding to P- or E- selectin was determined.
Inhibitors of cell binding
Test compounds were prepared by dissolution to a final concentration of 20 mg/ml in dimethyl sulfoxide (DMSO), diluted in PBS to 2 mg/ml, and briefly sonicated prior to use. The Rg coated wells were preincubated at room temperature for 15 minutes with the inhibitor, and 200,000 cells were added to yield the final indicated inhibitor concentration in 160 ul of PBS. The data is obtained as percent inhibition of specific binding: [formula] and a plot of dose vs. percent inhibition of Rg binding is generated in which IC50 (μM) is calculated and reported in Table 1.

P-selectin [2] = molecular target: T1, P-selectin; experiment: P-Selectin Adhesion Receptor Binding: cell-free ELISA, inhibition of P-selectin binding to immobilized sulfatides; conditions: immobilized sulfatide, pH 8.0
From the text: 1. P-Selectin Adhesion Receptor Binding
P-selectin (GMP140, granule membrane protein-140, PADGEM, or CD62) is a calcium-dependent transmembrane protein found in alpha granules of endothelial cells and platelets. It is an inducible selectin produced on activated endothelium and platelets which recognize alpha(2-3)sialylated and alpha(1-3)fucosylated lactosaminoglycans which include the sequence, Lewis x (Zhou et al., J. Cell. Biol., (1991) 115 (2): 557-564) and sulfatides (3-sulfated galactosyl ceramides, Aruffo, et al., Cell (1991) 67: 35-44). P-selectin may be responsible for the initial adhesion events between endothelium and neutrophils as evidenced by leukocyte rolling induced by P-selectin in flow cells (Lawrence, M., and T. Springer, Cell (1991) 65: 859-873).
Based on the availability of soluble forms of P-selectin prepared as described by Aruffo, A., et al., Cell, 67, 35-44 (1991), a binding ELISA based assay modified from Foxall, et al., J., Cell Biol., 117, 895-902 (1992) was developed to measure inhibitors of P-selectin binding to immobilized sulfatides. Such inhibitors were tested in the assay described below.
0.1 ml of sulfatide (SIGMA) or lysosulfatide (SIGMA) each at 1 μg/ml in MeOH were added to the wells of a 96-well ELISA plate (ProBind, Falcon) and allowed to dry overnight at room temperature. The next day the antigen coated plates were blocked for 1.5 hours at room temperature with 5% BSA (ICN) in buffer containing 20mM Hepes and 0.15 M NaCl, pH 8.0. Wild type P-selectin and mutants thereof were first mixed with HRP-conjugated goat anti-human IgG (Fisher Scientific), serially diluted and then incubated for 30 minutes at 37° C. in buffer containing 20 mM Hepes, 0.15 M NaCl, 1% BSA and 0.8 mM CaCl2, pH 8.0 prior to addition to the BSA blocked plates. Following the 30 minute preincubation, the fusion protein-HRP conjugate immunocomplexes were incubated on the blocked antigen coated plates for 45 minutes at 37° C. in the presence or absence of the test compounds and then washed to remove any unbound proteins. Bound complexes were detected by addition of substrate buffer (95 mM NaOAc.3H2 O, 5 mM citric acid monohydrate, 1.4 mM urea/H2O2) containing 3, 3', 5, 5' Tetramethylbenzidine (SIGMA). Reactions were stopped by the addition of 3N sulfuric acid and the absorbance read on an ELISA reader at dual wavelengths 450 and 630 nm. The efficacy of these compounds was compared to that of sulfatide (positive control) or to lysosulfatide (negative control). The data is obtained as percent inhibition of specific binding [formula] and a plot of dose vs. percent inhibition of Rg binding is generated in which IC50 (μM) is calculated and reported as cell free data in Table 1.

| pIC50 (P-selectin [1]) | pIC50 (P-selectin [2]) | SMILES |
| --- | --- | --- |
| 4.41 | 5.77 | CCCCCCCCCCCCC/C=C/[C@@H](O)[C@H](CO[C@@H]1O[C@H](COS(=O)(=O)O)[C@H](OS(=O)(=O)O)[C@H](O)[C@H]1O)NC(=O)CCCCCCCCCCCCCCC [Example 2, (2S,3R,4E)-3-Hydroxy-2-hexadecanoylamino-1-[4,6-di-O-(sodiumoxysulfonyl)-β-D-galactopyranosyloxy]-4-octadecene] |
| 4.96 | 6.00 | CCCCCCCC/C=C\CCCCCCCCCCCCCC(=O)N[C@@H](CO[C@@H]1O[C@H](COS(=O)(=O)O)[C@H](OC(=O)c2ccccc2)[C@H](OC(=O)c2ccccc2)[C@H]1OS(=O)(=O)O)[C@@H](/C=C/CCCCCCCCCCCCC)OC(=O)c1ccccc1 [Example 7, (2S,3R,4E)-3-Benzoyloxy-1-[3,4-di-O-benzoyl-2,6-di-O-(sodiumoxysulfonyl)-β-D-galactopyranosyloxy]-2-(cis-15-tetracosenoylamino)-4-octadecene] |
